Data: patent US6465433B1, “Boronic ester and acid compounds, synthesis and uses” (Millennium Pharmaceuticals, Inc., priority 1994, dated 2002)
pIC50, pKi: −log10 of the molar value.

Experiments:
C2C12 cells = experiment: Inhibition of protein degradation in C2C12 cells; assay type: cell-based, mouse; conditions: 35S-methionine labelled cells, percent decrease in TCA soluble radioactivity, media with 50% serum
Method: One approach to testing drug candidates for their ability to inhibit the ATP-ubiquitin-dependent degradative process is to measure proteolysis in cultured cells (Rock, et al., Cell 78:761 (1994)). For example, the degradation of long-lived intracellular proteins can be measured in mouse C2C12 myoblast cells. Cells are incubated with ^35S-methionine for 48 hours to label long-lived proteins and then chased for 2 hours with medium containing unlabeled methionine. After the chase period, the cells are incubated for 4 hours in the presence or absence of the test compound. The amount of protein degradation in the cell can be measured by quantitating the trichloroacetic acid soluble radioactivity released from the pre-labeled proteins into the growth medium (an indicator of intracellular proteolysis).
C2C12 cells (a mouse myoblast line) were labelled for 48 hrs with ^35S-methionine. The cells were then washed and preincubated for 2 hrs in the same media supplemented with 2 mM unlabelled methionine. The media was removed and replaced with a fresh aliquot of the preincubation media containing 50% serum, and a concentration of the compound to be tested. The media was then removed and made up to 10% TCA and centrifuged. The TCA soluble radioactivity was counted. Inhibition of proteolysis was calculated as the percent decrease in TCA soluble radioactivity.

[1] = biological target: SDS-activated 20S proteasome from rabbit muscle (Oryctolagus cuniculus, UniProt G1SU71+G1T4Q9); experiment: Kinetic assay: inhibition of the 20S proteasome; assay type: biochemical
Method: P, AA^1, AA^2, AA^3, and Z^1 and Z^2 represent the structures present on formula (1) or (2). The protocol for the kinetic assay described in Tables II-V is as described in Rock et al., Cell 78:761-771 (1994). In these tables, Ki values are reported, which are dissociation constants for the equilibrium that is established when enzyme and inhibitor interact to form the enzyme:inhibitor complex. The reactions were performed using SDS-activated 20S proteasome from rabbit muscle. The substrate used was Suc-LLVY-AMC.

[2] = Table II, SDS-activated 20S proteasome from rabbit muscle, substrate Suc-LLVY-AMC

CC(C)C[C@H](NC(=O)[C@H](Cc1c[nH]cn1)NC(=O)OCc1ccccc1)B(O)O [MG-282]
pIC50 (C2C12 cells): 4.19 | pKi [1, 2]: 7.60

CC(=O)N1Cc2[nH]c3ccccc3c2C[C@H]1C(=O)N[C@@H](CC(C)C)B(O)O [MG-344]
pKi [1, 2]: 7.29

CC(C)C[C@@H](NC(=O)[C@H](Cc1ccc(F)cc1)NC(=O)c1ccccn1)B(O)O [MG-383]
pKi [1, 2]: 9.08

CC(C)C[C@H](NC(=O)[C@H](CCc1ccccc1)NC(=O)c1ccc2ccccc2n1)B(O)O [MG-325, N-(2quinoline)carbonyl-L-homophenylalanine-L-leucine boronic acid]
pIC50 (C2C12 cells; Mus musculus, C2C12): 5.96 | pKi [1, 2]: 8.55

CC(C)C[C@H](NC(=O)[C@@H]1C[C@@H](O)CN1)B(O)O [MG-348]
pKi [1, 2]: 7.68

CC(C)C[C@H](NC(=O)[C@H](Cc1ccccc1)NC(=O)OCc1ccccc1)B(O)O [MG-356]
pKi [1, 2]: 9.89

CC(C)C[C@H](NC(=O)[C@@H](N)Cc1ccccn1)B(O)O [MG-351]
pIC50 (C2C12 cells): 5.09 | pKi [1, 2]: 7.49

CB(C)[C@H](CC(C)C)NC(=O)[C@H](Cc1cccc2ccccc12)NC(=O)N1CCOCC1 [MG-318, N-(4-Morpholine)carbonyl-β-(1-naphthyl)-L-alanine-L-leucine Dimethylborane]
pKi [1, 2]: 6.19

CC(C)C[C@H](NC(=O)[C@H](Cc1ccccc1)NC(=O)c1ccc2ccccc2n1)B(O)O [MG-314]
pIC50 (C2C12 cells): 6.89 | pKi [1, 2]: 9.72

CC(C)CC(NC(=O)C1CCCNC1)B(O)O (stereo not shown) [MG-339]
pKi [1, 2]: 5.80

O=C(NC(Cc1ccccc1)B(O)O)C(Cc1cccc2ccccc12)NC(=O)N1CCOCC1 (stereo not shown) [MG-321]
pIC50 (C2C12 cells): 5.62 | pKi [1, 2]: 9.49

CC(C)CC(NC(=O)C(Cc1ccc2ccccc2c1)NC(=O)N1CCOCC1)B(O)O (stereo not shown) [MG-308]
pIC50 (C2C12 cells): 7.02 | pKi [1, 2]: 9.14

CO[C@](C(=O)N[C@@H](CC(C)C)B(O)O)(c1ccccc1)C(F)(F)F [MG-284]
pKi [1, 2]: 5.92

CC(C)C[C@H](NC(=O)[C@H](Cc1ccccn1)NC(=O)C1CCCCC1)B(O)O [MG-346]
pIC50 (C2C12 cells): 6.82 | pKi [1, 2]: 8.96

CC(C)C[C@H](NC(=O)[C@H](Cc1cccc2ccccc12)NC(=O)C1CCCCC1)B(O)O [MG-329]
pIC50 (C2C12 cells): 7.32 | pKi [1, 2]: 10.52

CC(C)C[C@H](NC(=O)[C@@H]1Cc2ccccc2CN1)B(O)O [MG-316]
pIC50 (C2C12 cells; Mus musculus, C2C12): 4.68 | pKi [1, 2]: 7.66

CC(C)C[C@H](NC(=O)[C@H](Cc1c[nH]c2ccccc12)NS(C)(=O)=O)B(O)O [MG-295]
pKi [1, 2]: 8.24

CC(C)CC(NC(=O)C(Cc1ccc2ccccc2c1)NC(=O)OCc1ccccc1)B(O)O (stereo not shown) [MG-272]
pIC50 (C2C12 cells): 5.22 | pKi [1, 2]: 7.47

CC(C)C[C@H](NC(=O)[C@@H]1CCCN1)B(O)O [MG-319]
pIC50 (C2C12 cells; Mus musculus, C2C12): 4.85 | pKi [1, 2]: 7.70

CC(C)C[C@H](NC(=O)[C@H](Cc1ccc(OCc2ccccc2)cc1)NC(=O)N1CCOCC1)B(O)O [MG-306, N-(4-Morpholine)carbonyl-(O-benzyl)-L-tyrosine-L-leucine Boronic Acid]
pIC50 (C2C12 cells; Mus musculus, C2C12): 6.89 | pKi [1, 2]: 9.64

N-Methyl-N-Cbz-L-leucine-L-leucine Boronic Acid [MG-268]
pKi [1, 2]: 6.00

CC(C)C[C@H](NC(=O)[C@H](Cc1ccccc1)NC(=O)c1cccnc1)B(O)O [MG-336, N-(3-pyridine)carbonyl-L-phenylalanine-L-leucine boronic acid]
pIC50 (C2C12 cells; Mus musculus, C2C12): 7.00 | pKi [1, 2]: 9.60

CC(C)C[C@H](NC(=O)[C@H](Cc1cccnc1)NC(=O)N1CCOCC1)B(O)O [MG-300]
pKi [1, 2]: 8.89

cis-3-Phenyl-D,L-proline-L-leucine Boronic Acid Hydrochloride Salt [MG-359]
pKi [1, 2]: 8.26

trans-4-Phenoxy-L-proline-L-leucine Boronic Acid [MG-349]
pKi [1, 2]: 7.74

CC(C)CC(NC(=O)C(Cc1cccc2ccccc12)NC(=O)N1CCOCC1)B(O)O (stereo not shown) [MG-293]
pKi [1, 2]: 5.64

CC(C)C[C@H](NC(=O)[C@@H](CC(=O)N1CCOCC1)Cc1cccc2ccccc12)B(O)O [MG-324, N-[3-(4-Morpholine)carbonyl-2(R)-(1-naphthyl)methyl]propionyl-L-leucine Boronic Acid]
pKi [1, 2]: 8.70

CC(C)CC(NC(=O)C1NCCc2ccccc21)B(O)O (stereo not shown) [MG-337]
pKi [1, 2]: 6.64

CC(C)C[C@H](NC(=O)[C@H](Cc1ccccc1)NC(=O)c1ccccc1)B(O)O [MG-353]
pKi [1, 2]: 9.82

CC(C)C[C@H](NC(=O)[C@@H]1C[C@@H](OCc2ccc3ccccc3n2)CN1)B(O)O [MG-385]
pKi [1, 2]: 7.64

CC(C)CC(NC(=O)C1CC2CCCCC2N1)B(O)O (stereo not shown) [MG-386]
pKi [1, 2]: 7.04

CC(C)C[C@H](NC(=O)[C@H](Cc1ccccn1)NC(=O)c1ccc2ccccc2n1)B(O)O [MG-338]
pKi [1, 2]: 8.85

N-(3-phenylpropionyl)-L-phenylalanine-L-leucine boronic acid [MG-352]
pKi [1, 2]: 9.82

CC(C)C[C@H](NC(=O)[C@H](Cc1ccccn1)NC(=O)c1cnccn1)B(O)O [MG-368]
pKi [1, 2]: 8.25

CC(C)CC(NC(=O)C(CC(C)C)NC(=O)C(CC(C)C)NC(=O)OCc1ccccc1)B1OC2CC3CC(C3(C)C)C2(C)O1 (stereo not shown) [MG-261]
pKi [1, 2]: 10.49

CC(C)C[C@H](NC(=O)CCc1ccccc1)B(O)O [MG-313]
pIC50 (C2C12 cells; Mus musculus, C2C12): 5.46

CB(O)[C@H](CC(C)C)NC(=O)[C@H](Cc1cccc2ccccc12)NC(=O)N1CCOCC1 [MG-317, N-(4-Morplioline)carbonyl-β-(1-naphtlyl)-L-alanine-L-leucine Methylboronic Acid]
pKi [1, 2]: 7.00

trans-3-Phenyl-D,L-proline-L-leucine Boronic Acid Hydrochloride Salt [MG-363]
pKi [1, 2]: 8.46

CC(C)CC(NC(=O)C1CCCCN1)B(O)O (stereo not shown) [MG-357]
pKi [1, 2]: 7.64

CC(C)C[C@H](NC(=O)C[C@H](O)[C@H](Cc1cccc2ccccc12)NS(=O)(=O)c1cccc2cccnc12)B(O)O [MG-354]
pKi [1, 2]: 7.55

CC(C)C[C@@H](C=O)NC(=O)[C@H](CC(C)C)NC(=O)OCc1ccccc1 [MG-105, reference compound]
pKi ([1]; Table III, dipeptide boronic acid vs dipeptide aldehyde): 4.82

CC(C)C[C@H](NC(=O)[C@H](Cc1ccccc1)NS(=O)(=O)c1cccc2cccnc12)B(O)O [MG-380]
pKi [1, 2]: 8.36

CC(C)C[C@H](NC(=O)[C@@H](N)Cc1cccnc1)B(O)O [MG-294]
pKi [1, 2]: 6.82

CC(C)C[C@H](NC(=O)NCc1ccccc1)B(O)O [MG-362]
pKi [1, 2]: 5.19

CC(C)C[C@H](NC(=O)[C@H](Cc1ccccc1)NC(=O)c1ccoc1)B(O)O [MG-358]
pKi [1, 2]: 9.77

CC(C)CC(NC(=O)C(CC(C)C)NC(=O)OCc1ccccc1)B1OC2CC3CC(C3(C)C)C2(C)O1 (stereo not shown) [MG-264]
pKi [1, 2]: 6.92

CC(C)C[C@H](NC(=O)[C@H](Cc1ccccc1)NC(=O)c1cc[nH]c1)B(O)O [MG-361]
pKi [1, 2]: 9.85

CC(C)C[C@H](NC(=O)[C@@H]1CCN1)B(O)O [MG-369]
pKi [1, 2]: 7.62

CC(=O)N[C@@H](CC(C)C)B(O)O [MG-323]
pKi [1, 2]: 6.07

CC(C)C[C@H](NC(=O)[C@H](Cc1cccc2ccccc12)NS(C)(=O)=O)B1OCCNCCO1 [MG-291]
pKi [1, 2]: 9.55

CC(C)C[C@H](CC(=O)NCc1ccccc1)B(O)O [MG-342, N-Benzyl-(3R)-3-dioxyboryl-5-methylhexanamide]
pKi [1, 2]: 5.01

CC(=O)N1Cc2ccccc2CC1C(=O)N[C@@H](CC(C)C)B(O)O (stereo partly drawn) [MG-310, N-Acetyl-1,2,3,4-tetrahydro-3-isoquinolinecarbonyl-L-leucine Boronic Acid]
pKi [1, 2]: 7.05

CC(C)C[C@H](NC(=O)[C@H](Cc1ccc(F)cc1)NC(=O)c1cnccn1)B(O)O [MG-382]
pKi [1, 2]: 9.02

CC(C)C[C@H](NC(=O)[C@@H]1CCCCN1)B(O)O [MG-366]
pKi [1, 2]: 7.34
